# Target: MAGL (Homo sapiens (Human), UniProt Q99685)
# Test: 2-AG assay (MAGL inhibitory activity, hydrolysis of 2-arachidonoylglycerol followed by mass spectrometry)
# Assay type: biochemical
# Conditions: 50 pM MAGL protein, 15 min pre-incubation, 30 min incubation at RT
# Outline: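 Human MAGL (50 pM final) preincubated 15 min at RT with compound (3-fold dilutions, 12.5 μM to 0.8 pM final) in 50 mM TRIS, 1 mM EDTA, 0.01% Tween-20, 2.5% DMSO. Reaction with […] 2-AG ran 30 min at RT, then was quenched with acetonitrile containing d8-arachidonic acid. Arachidonic acid measured by SPE–triple-quad MS (negative ESI), activity from the arachidonic/d8-arachidonic acid intensity ratio.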
# Chain of MAGL (Q99685 whole entry, species assumed): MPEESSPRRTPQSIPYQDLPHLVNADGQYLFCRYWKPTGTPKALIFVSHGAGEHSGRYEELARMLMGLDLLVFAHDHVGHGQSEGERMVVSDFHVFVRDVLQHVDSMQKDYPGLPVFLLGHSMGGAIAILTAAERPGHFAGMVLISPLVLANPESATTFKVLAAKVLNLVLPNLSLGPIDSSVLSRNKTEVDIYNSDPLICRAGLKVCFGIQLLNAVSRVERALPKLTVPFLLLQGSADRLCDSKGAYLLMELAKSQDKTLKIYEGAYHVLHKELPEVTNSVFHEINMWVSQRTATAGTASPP
row,Compound,IC50
1,"CC1c2nn(C)c(-c3cc(F)cc(F)c3)c2CCN1C(=O)c1cc(F)cc(N2CC3(C2)CS(=O)(=O)C3)c1Cl (stereo not shown) [Example 19, [2-Chloro-3-(2,2-dioxo-2λ^6-thia-6-azaspiro[3.3]heptan-6-yl)-5-fluoro-phenyl]-[3-(3,5-difluorophenyl)-2,7-dimethyl-5,7-dihydro-4H-pyrazolo[3,4-c]pyridine-6-yl]methanone]",41 nM
2,"CC1c2nn(C)c(-c3cc(F)cc(F)c3)c2CCN1C(=O)c1cc(F)cc(N2CC(S(C)(=O)=O)C2)c1Cl (stereo not shown) [Example 22, [2-Chloro-5-fluoro-3-(3-methylsulfonylazetidin-1-yl)phenyl]-[3-(3,5-difluorophenyl)-2,7-dimethyl-5,7-dihydro-4H-pyrazolo[3,4-c]pyridin-6-yl]methanone]",76 nM
3,"C[C@@H]1c2nn(C)c(-c3cc(F)cc(F)c3)c2CCN1C(=O)c1cc(F)cc(CCc2c[nH]nn2)c1Cl [Example 105, [2-chloro-5-fluoro-3-[2-(JH-triazol-4-yl)ethyl]phenyl]-[(7R)-3-(3,5-difluorophenyl)-2,7-dimethyl-5,7-dihydro-4H-pyrazolo[3,4-c]pyridin-6-yl]methanone]",1.01 nM
4,"C[C@@H]1c2nn(C)c(-c3cc(Cl)cc(C4(NS(C)(=O)=O)CC4)c3)c2CCN1C(=O)c1cc(F)cc(CCc2c[nH]nn2)c1Cl [Example 89, N-[1-[3-chloro-5-[(7R)-6-[2-chloro-5-fluoro-3-[2-(1H-triazol-4-yl)ethyl]benzoyl]-2,7-dimethyl-5,7-dihydro-4H-pyrazolo[3,4-c]pyridin-3-yl]phenyl]cyclopropyl]methanesulfonamide]",26.8 nM
5,"C[C@H]1c2nn(C)c(-c3cc(F)cc(F)c3)c2CCN1C(=O)c1cc(Cl)cc(OC[C@@H]2CNC(=O)O2)c1Cl (single isomer, unassigned) [Example 108]",294 nM
6,"C[C@@H]1c2nn(C)c(-c3cc(F)cc(F)c3)c2CCN1C(=O)c1ccnc(OCC2CNC(=O)O2)c1Cl (stereo partly drawn) [Example 43, 5-[[3-Chloro-4-[(7R)-3-(3,5-difluorophenyl)-2,7-dimethyl-5,7-dihydro-4H-pyrazolo[3,4-c]pyridine-6-carbonyl]-2-pyridyl]oxymethyl]oxazolidin-2-one]",1340 nM
7,"C[C@@H]1c2nn(C)c(-c3cc(F)cc(F)c3)c2CCN1C(=O)c1cc(F)cc(C2=CC(Cl)C(=O)N=C2)c1Cl (stereo partly drawn) [Example 99, 3-chloro-5-[2-chloro-3-[(7R)-3-(3,5-difluorophenyl)-2,7-dimethyl-5,7-dihydro-4H-pyrazolo[3,4-c]pyridine-6-carbonyl]-5-fluoro-phenyl]-3H-pyridin-2-one]",767 nM
8,"CC1c2nn(C)c(-c3cc(Cl)cc(C4(S(C)(=O)=O)CC4)c3)c2CCN1C(=O)c1cc(F)cc(-c2ccc(=O)[nH]c2)c1Cl (stereo not shown) [Example 60, 5-[2-Chloro-3-[3-[3-chloro-5-(1-methylsulfonylcyclopropyl)phenyl]-2,7-dimethyl-5,7-dihydro-4H-pyrazolo[3,4-c]pyridine-6-carbonyl]-5-fluoro-phenyl]-1H-pyridin-2-one]",138 nM
9,"C[C@@H]1c2nn(C)c(-c3cc(F)c(F)c(F)c3)c2CCN1C(=O)c1cc(F)cc(-c2c[nH]c(C#N)c2)c1Cl [Example 93, 4-[2-chloro-3-[(7R)-2,7-dimethyl-3-(3,4,5-trifluorophenyl)-5,7-dihydro-4H-pyrazolo[3,4-c]pyridine-6-carbonyl]-5-fluoro-phenyl]-1H-pyrrole-2-carbonitrile]",734 nM
10,"C[C@H]1c2nn(C)c(-c3cc(Cl)cc(C4(S(C)(=O)=O)CC4)c3)c2CCN1C(=O)c1ncn(-c2ccc[nH]c2=O)n1 [Example 78, 3-[3-[(7S)-3-[3-chloro-5-(1-methylsulfonylcyclopropyl)phenyl]-2,7-dimethyl-5,7-dihydro-4H-pyrazolo[3,4-c]pyridine-6-carbonyl]-1,2,4-triazol-1-yl]-1H-pyridin-2-one]",275 nM

# Reference: patent US20250059185A1 (Hoffmann-La Roche Inc., priority 2021, published 2025)
